{"source": "patent US20030049320A1", "about": "“Novel in-situ forming controlled release microcarrier delivery system” (priority 2000, published 2003)", "origin": "cited, not measured here", "conditions": "intravenously as a solution, reported in the literature"}
{"smiles": "CC(=O)O[C@H]1C(=O)[C@@]2(C)[C@H]([C@H](OC(=O)c3ccccc3)[C@]3(O)C[C@H](OC(=O)[C@H](O)[C@@H](NC(=O)c4ccccc4)c4ccccc4)C(C)=C1C3(C)C)[C@]1(OC(C)=O)CO[C@@H]1C[C@@H]2O", "note": "[paclitaxel]", "values": [{"measurement": "Plasma elimination half-life of paclitaxel", "value": 1.1, "unit": "h"}]}
